# From patent publication US20170325453A1, “Herbicidal Mixtures for Controlling Herbicide-Resistant Dicotyledonous Plants” (priority 2014, published 2017)
# Assays:
# Assay type in all cases: in vivo
# [1] = test system: Trichachne insularis (Digitaria insularis); test: Example 2: visual control of Trichachne insularis (Digitaria insularis), post emergence (Table 16); conditions: visual control 0-100%, dose per numbered treatment
# Method: (§1) The study was carried out in Brazil.
# (§2) All treatments were applied in established weeds, post emergence, before weeds flowering. The treatments were applied using backpressure equipment (nozzles TEEJET8002) with a water consumption of 150 liters per hectare, 1.2 BAR.
# (§3) 14, 21, 28, 35 and 42 days after application (“DAA”) evaluations were carried out, i.e. measuring the control of Trichachne insularis (Digitaria insularis) and its regrowth. The assessment consisted in a visual control level of weeds in which 0% related to absence of control and 100% to total control of weeds. The regrowth were assessed by comparing the emergence of new tillers in treatments versus the emergence of new tillers in check (non-treated control).
# (§4) An analysis was carried out for viability rates applied through a variance analysis and a mean comparison test of Student—Newman-Keuls ([…]) with the ARM® statistical analysis package.
# [2] = test system: Trichachne insularis (Digitaria insularis); test: Example 2: regrowth of D. insularis, emergence of new tillers versus non-treated check (Table 17); parameters: scale not given here; conditions: post emergence; for regrowth of D. insularis 35 DAA: 35 days after application; for regrowth of D. insularis 42 DAA: 42 days after application
# Method: as §1, §2, §3, §4
# Conyza bonariensis = test: Example 3: control of Conyza bonariensis, viable weeds versus control plot, synergy by Colby; parameters: key: % control, viable weeds vs. untreated control plot; conditions: weeds 20 cm height at application
# Description: Synergism can be described as an interaction where the combined effect of two or more compounds is greater than the sum of the individual effects of each of the compounds. The presence of a synergistic effect in terms of percent control, between two mixing partners (X and Y) can be calculated using the Colby equation (Colby, S. R., 1967, Calculating Synergistic and Antagonistic Responses in Herbicide Combinations, Weeds, 15, 21-22):
# When the observed combined control effect is greater than the expected (calculated) combined control effect (E), then the combined effect is synergistic. The synergistic effect may also be present when the observed combined control effect is equal to the expected (calculates) combined control effect, especially when control values over 90 are calculated.
# Analogously, the Colby's equation can be used to determine synergism of 3-way and higher mixtures:
# as §1
# The applications carried out by a back pressure sprayer with T-jet nozzles (XR-110.02) covering 200 liters per hectare. At the time of application, Conyza bonariensis weeds were 20 cm height. The results assessed by the comparison between viable weeds at the control plot and the viable weeds at the treatments plots. To the experiment, the plot consist of a 20 m2 area (5 meters length and 4 meters width).
# The synergy was calculated by Colby formula and it expansion for three-way mixtures
structure (smiles),measurement,setting,value
"CCSC(C)CC1CC(=O)C(/C(CC)=N/OC/C=C/Cl)=C(O)C1 (racemic) [Clethodim, (RS)-2-[(E)-1-[(E)-3-chloroallyloxyimino]propyl]-5-[2-(ethylthio)propyl]-3-hydroxycyclohex-2-en-1-one]","% of control, 28 DAA, Proved",[1],62.5%
same,"% of control, 35 DAA, Proved",[1],60%
same,"% of control, 42 DAA, Proved",[1],52.5%
same,regrowth of D. insularis 35 DAA,[2],28
same,regrowth of D. insularis 42 DAA,[2],33.75
"O=C(O)CNCP(=O)(O)O [Glyphosate, N-(phosphonomethyl)glycine]","% of control, 28 DAA, Proved",[1],8.75%
same,"% of control, 35 DAA, Proved",[1],6.25%
same,"% of control, 42 DAA, Proved",[1],3.75%
same,regrowth of D. insularis 35 DAA,[2],61.25
same,regrowth of D. insularis 42 DAA,[2],67.5
same,Control of Conyza bonariensis 7 DAA Field Results,Conyza bonariensis; listed as 1 Glyphosate,32.50
same,Control of Conyza bonariensis 7 DAA Field Results,Conyza bonariensis; listed as 3 Glyphosate,15.00
same,Control of Conyza bonariensis 15 DAA Field Results,Conyza bonariensis; listed as 1 Glyphosate,65.00
same,Control of Conyza bonariensis 15 DAA Field Results,Conyza bonariensis; listed as 3 Glyphosate,27.50
"CC(C)N(C)S(=O)(=O)NC(=O)c1cc(-n2c(=O)cc(C(F)(F)F)n(C)c2=O)c(F)cc1Cl [Saflufenacil, N′-{2-chloro-4-fluoro-5-[1,2,3,6-tetrahydro-3-methyl-2,6-dioxo-4-(trifluoromethyl)pyrimidin-1-yl]benzoyl}-N-isopropyl-N-methylsulfannide]","% of control, 28 DAA, Proved",[1]; listed as 05. Saflufenacil,5%
same,"% of control, 28 DAA, Proved",[1]; listed as 06. Saflufenacil,6.25%
same,"% of control, 35 DAA, Proved",[1]; listed as 05. Saflufenacil,5%
same,"% of control, 35 DAA, Proved",[1]; listed as 06. Saflufenacil,6.25%
same,"% of control, 42 DAA, Proved",[1],2.5%
same,regrowth of D. insularis 35 DAA,[2]; listed as 05. Saflufenacil,63.75
same,regrowth of D. insularis 35 DAA,[2]; listed as 06. Saflufenacil,66.5
same,regrowth of D. insularis 42 DAA,[2]; listed as 05. Saflufenacil,72.5
same,regrowth of D. insularis 42 DAA,[2]; listed as 06. Saflufenacil,78.75
same,Control of Conyza bonariensis 7 DAA Field Results,Conyza bonariensis; listed as 4 Saflufenacil,60.00
same,Control of Conyza bonariensis 7 DAA Field Results,Conyza bonariensis; listed as 5 Saflufenacil,86.25
same,Control of Conyza bonariensis 15 DAA Field Results,Conyza bonariensis; listed as 4 Saflufenacil,56.25
same,Control of Conyza bonariensis 15 DAA Field Results,Conyza bonariensis; listed as 5 Saflufenacil,73.75
